# pIC50: −log10 of the molar value.
# How the values were obtained:
# [1] = molecular target: T1, human SLC6A19 and TMEM27 (Homo sapiens, UniProt Q695T7); assay: 13C6,15N-isoleucine uptake in CHO cells with doxycycline-inducible expression of human SLC6A19 and TMEM27, RapidFire mass spectrometry (Example B-2); type: cell-based; conditions: read-out: SLC6A19_RapidFire Uptake Assay IC50
# T1 construct: expressed in transfected cells
# T1 sequence (Q695T7 1-634): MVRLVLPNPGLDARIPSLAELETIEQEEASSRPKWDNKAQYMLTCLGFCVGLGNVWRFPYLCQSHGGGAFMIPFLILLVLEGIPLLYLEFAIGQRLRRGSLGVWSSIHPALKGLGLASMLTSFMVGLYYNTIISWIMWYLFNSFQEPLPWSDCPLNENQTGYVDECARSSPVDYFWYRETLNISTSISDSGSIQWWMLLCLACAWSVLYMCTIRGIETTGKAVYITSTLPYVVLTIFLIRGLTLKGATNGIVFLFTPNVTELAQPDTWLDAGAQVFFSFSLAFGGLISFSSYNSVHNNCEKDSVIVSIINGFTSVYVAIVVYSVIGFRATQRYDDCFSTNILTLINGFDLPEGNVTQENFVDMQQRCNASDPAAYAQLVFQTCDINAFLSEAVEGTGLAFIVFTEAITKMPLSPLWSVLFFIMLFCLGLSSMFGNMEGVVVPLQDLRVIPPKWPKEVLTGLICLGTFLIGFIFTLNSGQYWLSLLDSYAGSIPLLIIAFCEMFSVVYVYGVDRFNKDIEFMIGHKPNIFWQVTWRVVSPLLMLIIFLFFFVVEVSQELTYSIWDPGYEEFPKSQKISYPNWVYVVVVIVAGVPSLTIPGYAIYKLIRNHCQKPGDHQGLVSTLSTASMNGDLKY
# T1 sequence (Q9HBJ8 15-222 partner): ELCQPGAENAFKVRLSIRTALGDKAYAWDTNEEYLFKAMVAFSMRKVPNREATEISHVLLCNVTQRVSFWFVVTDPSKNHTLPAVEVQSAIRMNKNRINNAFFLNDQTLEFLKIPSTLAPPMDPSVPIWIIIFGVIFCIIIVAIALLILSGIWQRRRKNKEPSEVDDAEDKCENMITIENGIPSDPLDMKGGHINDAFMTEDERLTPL
# Procedure, shortened: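 Read-out is RapidFire mass-spec peak area of 13C6,15N-isoleucine taken up over 20 min at 37 °C, after 20 min compound pre-exposure in pH 7.2 HEPES-buffered saline. Cells: doxycycline-induced CHO co-expressing human SLC6A19 and TMEM27; compounds as duplicate 10-point 2-fold dilutions, positive control setting 0% activity.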
# [2] = molecular target: T1, human SLC6A19 and TMEM27; assay: Radiolabelled (3H) leucine uptake in CHO cells with doxycycline-inducible expression of human SLC6A19 and TMEM27 (Example B-1); type: cell-based; conditions: CHO cells with doxycycline-inducible expression of human SLC6A19 and TMEM27, read-out: SLC6A19_Radioligand Uptake Assay IC50
# Procedure, shortened: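 CHO cells were induced with doxycycline for 18 h at 37 °C, washed in HBSS, then exposed to compounds for 1 h: 8-point, 3-fold dilutions in duplicate, 0.5% DMSO final. Uptake measured by scintillation counting after 2 h shaking. Activity normalized with positive control as 0% and DMSO as 100%.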
SMILES,pIC50 [1],pIC50 [2]
"CC1(C(=O)NCc2cc3cc(Cl)c(OCc4ccoc4)cc3[nH]2)CC1 [Compound 64, N-((5-chloro-6-(furan-3-ylmethoxy)-1H-indol-2-yl)methyl)-1-methylcyclopropane-1-carboxamide]",7.62,7.11
"Cc1csc(COc2cc3[nH]c(CNC(=O)C4(C)CC4)cc3cc2Cl)n1 [Compound 24, N-((5-chloro-6-((4-methylthiazol-2-yl)methoxy)-1H-indol-2-yl)methyl)-1-methylcyclopropane-1-carboxamide]",6.65,6.39
"CC(=O)NCc1cc2cc(F)c(OCc3cc(C)on3)cc2[nH]1 [Compound 205, N-((5-fluoro-6-((5-methylisoxazol-3-yl)methoxy)-1H-indol-2-yl)methyl)acetamide]",6.15,6.10
"CCC(=O)NCc1cc2cc(F)c(OCc3cc(C)no3)cc2[nH]1 [Compound 548, N-((5-fluoro-6-((3-methylisoxazol-5-yl)methoxy)-1H-indol-2-yl)methyl)propionamide]",7.26,7.00
"O=C(NCc1cc2ccc(OCc3ccon3)cc2[nH]1)N1CCC1 [Compound 122, N-((6-(isoxazol-3-ylmethoxy)-1H-indol-2-yl)methyl)azetidine-1-carboxamide]",6.11,6.44
"CC1(C(=O)NCc2cc3cc(Cl)c(OCc4cccnc4F)cc3[nH]2)CC1 [Compound 30, N-((5-chloro-6-((2-fluoropyridin-3-yl)methoxy)-1H-indol-2-yl)methyl)-1-methylcyclopropane-1-carboxamide]",6.81,6.58
"CC1(C(=O)NCc2cc3cc(Cl)c(OCc4ccc5ccoc5c4)cc3[nH]2)CC1 [Compound 461, N-((6-(benzofuran-6-ylmethoxy)-5-chloro-1H-indol-2-yl)methyl)-1-methylcyclopropane-1-carboxamide]",6.00,5.57
"CNC(=O)NCc1cc2cc(F)c(OCc3cocn3)cc2[nH]1 [Compound 215, 1-((5-fluoro-6-(oxazol-4-ylmethoxy)-1H-indol-2-yl)methyl)-3-methylurea]",5.41,6.01
"CC1(C(=O)NCc2cc3cc(Cl)c(OCc4ncc(Cl)s4)cc3[nH]2)CC1 [Compound 323, N-((5-chloro-6-((5-chlorothiazol-2-yl)methoxy)-1H-indol-2-yl)methyl)-1-methylcyclopropane-1-carboxamide]",6.27,5.74
"CC1(C(=O)NCc2cc3cc(Cl)c(CCc4cscn4)cc3[nH]2)CC1 [Compound 149, N-((5-chloro-6-(2-(thiazol-4-yl)ethyl)-1H-indol-2-yl)methyl)-1-methylcyclopropane-1-carboxamide]",7.47,7.07

# The remaining compounds from weak to strong by pIC50 [1], led by results:
pIC50 [1],pIC50 [2],SMILES
6.58,6.46,"O=C(NCc1cc2cc(F)c(CCc3ccon3)cc2[nH]1)N1CCCC1 [Compound 603, N-((5-fluoro-6-(2-(isoxazol-3-yl)ethyl)-1H-indol-2-yl)methyl)pyrrolidine-1-carboxamide]"
6.76,6.54,"O=C(NCc1cc2cc(Cl)c(OCc3cccc(F)n3)cc2[nH]1)N1CCC1 [Compound 402, N-((5-chloro-6-((6-fluoropyridin-2-yl)methoxy)-1H-indol-2-yl)methyl)azetidine-1-carboxamide]"
6.81,6.54,"O=C(NCc1cc2cc(Cl)c(CCc3ccon3)cc2[nH]1)N1CCCC1 [Compound 412, N-((5-chloro-6-(2-(isoxazol-3-yl)ethyl)-1H-indol-2-yl)methyl)pyrrolidine-1-carboxamide]"
7.24,6.95,"O=C(NCc1cc2cc(F)c(OCc3ccon3)cc2[nH]1)C1(F)CC1 [Compound 233, 1-fluoro-N-((5-fluoro-6-(isoxazol-3-ylmethoxy)-1H-indol-2-yl)methyl)cyclopropane-1-carboxamide]"

# — US20240199546A1, “INHIBITORS OF SOLUTE CARRIER FAMILY 6A MEMBER 19 (SLC6A19) AND METHODS OF USE THEREOF” (Maze Therapeutics, Inc., priority 2022, published 2024)
